# From patent publication US20020137929A1, “1 - (3-heterocyclylphenyl) isothiourea, -isourea, -guanidine and -amidine herbicidal agents” (Intellectual Property Department, BASF Aktiengesellschaft, priority 1998, published 2002)
# Assays:
# [1] = test system: AMBEL (Ragweed, Common); test: Preemergence herbicidal evaluation; assay type: in vivo, Ambrosia artemisifolia; settings: rated 4-5 weeks after treatment
# How it was run: (§1)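 Sown cups got a single aqueous acetone spray of test compound (roughly 0.0156–0.500 kg/ha) before seedlings emerged. Evaluation, 4–5 weeks on, used a 0–9 visual scale covering plant stand, vigor, size, malformation, chlorosis and general appearance compared with controls.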
# [2] = test system: IPOHE (Morningglory, Ivyleaf); test: Postemergence herbicidal evaluation; assay type: in vivo, Ipomoea hederacea; settings: postemergence
# How it was run: (§2)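 Seedlings grown about two weeks were sprayed at 40 psi with compound dispersed in 50/50 acetone/water plus 0.5% TWEEN 20, at about 0.0156 to 0.500 kg/ha. Plants were kept in the greenhouse and scored 4–5 weeks later on a 0–9 visual scale against untreated controls.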
# [3] = test system: TRZAWR (Wheat, Winter, cv Riband); test: Postemergence herbicidal evaluation; assay type: in vivo, Triticum aestivum; settings: postemergence
# How it was run: as §2
# [4] = test system: ECHCG (Barnyardgrass); test: Postemergence herbicidal evaluation; assay type: in vivo, Echinochloa crus-galli; settings: postemergence
# How it was run: as §2
# [5] = test system: GLXMAW (Soybean, Williams); test: Preemergence herbicidal evaluation; assay type: in vivo, Glycine max, (L.) Merr. cv Williams; settings: rated 4-5 weeks after treatment
# How it was run: as §1
# [6] = test system: IPOHE (Morningglory, Ivyleaf); test: Preemergence herbicidal evaluation; assay type: in vivo, Ipomoea hederacea; settings: rated 4-5 weeks after treatment
# How it was run: as §1
# [7] = test system: CASOB (Sicklepod); test: Preemergence herbicidal evaluation; assay type: in vivo, Cassia obtusifolia; settings: rated 4-5 weeks after treatment
# How it was run: as §1
# [8] = test system: CHEAL (Lambsquarters, Common); test: Postemergence herbicidal evaluation; assay type: in vivo, Chenopodium album; settings: postemergence
# How it was run: as §2
# [9] = test system: CASOB (Sicklepod); test: Postemergence herbicidal evaluation; assay type: in vivo, Cassia obtusifolia; settings: postemergence
# How it was run: as §2
# [10] = test system: GLXMAW (Soybean, Williams); test: Postemergence herbicidal evaluation; assay type: in vivo, Glycine max, (L.) Merr. cv Williams; settings: postemergence
# How it was run: as §2
# [11] = test system: ABUTH (Velvetleaf); test: Preemergence herbicidal evaluation; assay type: in vivo, Abutilon theophrasti; settings: rated 4-5 weeks after treatment
# How it was run: as §1
# [12] = test system: ORYSAT (Rice, Tebonnet); test: Preemergence herbicidal evaluation; assay type: in vivo, Oryza sativa, (L.) Tebonnet; settings: rated 4-5 weeks after treatment
# How it was run: as §1
# [13] = test system: AMBEL (Ragweed, Common); test: Postemergence herbicidal evaluation; assay type: in vivo, Ambrosia artemisifolia; settings: postemergence
# How it was run: as §2
# [14] = test system: SAGPY (Arrowhead (Pygmaea)); test: Preemergence weed control under flooded paddy conditions; assay type: in vivo, Sagittaria pygmaea; settings: rated 3-4 weeks after treatment
# How it was run: (§3)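 Herbicidal effect is scored visually on a 0-9 scale against an untreated control, three to four weeks after compounds are pipetted into the flood water (1.5 to 3 cm deep) over seeds planted in silt loam at 0.5 cm depth. Rates: about 0.0313 to 0.500 kg/ha.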
# [15] = test system: MOOVA (Monochoria); test: as above; assay type: in vivo, Monochoria vaginalis; settings: rated 3-4 weeks after treatment
# How it was run: as §3
# [16] = test system: CHEAL (Lambsquarters, Common); test: Preemergence herbicidal evaluation; assay type: in vivo, Chenopodium album; settings: rated 4-5 weeks after treatment
# How it was run: as §1
structure (smiles),measurement,setting,value
CCCCOC(=O)CN1C(=O)CSC1=Nc1cc(-n2c(=O)cc(C(F)(F)F)n(C)c2=O)c(F)cc1Cl [Compound 111],Preemergence herbicidal rating AMBEL,[1]; rate 0.0156 kg/ha,0.0
same,Preemergence herbicidal rating AMBEL,[1]; rate 0.0313 kg/ha,0.0
same,Preemergence herbicidal rating AMBEL,[1]; rate 0.0625 kg/ha,0.0
same,Preemergence herbicidal rating AMBEL,[1]; rate 0.1250 kg/ha,6.0
same,Preemergence herbicidal rating AMBEL,[1]; rate 0.2500 kg/ha,7.0
same,herbicidal rating IPOHE,[2]; rate 0.0158 kg/ha,4.0
same,herbicidal rating IPOHE,[2]; rate 0.0315 kg/ha,9.0
same,herbicidal rating IPOHE,[2]; rate 0.0630 kg/ha,9.0
same,herbicidal rating TRZAWR,[3]; rate 0.0158 kg/ha,2.5
same,herbicidal rating TRZAWR,[3]; rate 0.0315 kg/ha,4.5
same,herbicidal rating TRZAWR,[3]; rate 0.0630 kg/ha,5.5
same,herbicidal rating ECHCG,[4]; rate 0.0158 kg/ha,3.0
same,herbicidal rating ECHCG,[4]; rate 0.0315 kg/ha,4.0
same,herbicidal rating ECHCG,[4]; rate 0.0630 kg/ha,9.0
same,Preemergence herbicidal rating GLXMAW,[5]; rate 0.0156 kg/ha,1.0
same,Preemergence herbicidal rating GLXMAW,[5]; rate 0.0313 kg/ha,1.0
same,Preemergence herbicidal rating GLXMAW,[5]; rate 0.0625 kg/ha,1.0
same,Preemergence herbicidal rating GLXMAW,[5]; rate 0.1250 kg/ha,3.0
same,Preemergence herbicidal rating GLXMAW,[5]; rate 0.2500 kg/ha,4.0
same,Preemergence herbicidal rating IPOHE,[6]; rate 0.0156 kg/ha,0.0
same,Preemergence herbicidal rating IPOHE,[6]; rate 0.0313 kg/ha,0.0
same,Preemergence herbicidal rating IPOHE,[6]; rate 0.0625 kg/ha,0.0
same,Preemergence herbicidal rating IPOHE,[6]; rate 0.1250 kg/ha,9.0
same,Preemergence herbicidal rating IPOHE,[6]; rate 0.2500 kg/ha,7.0
same,Preemergence herbicidal rating CASOB,[7]; rate 0.0156 kg/ha,0.0
same,Preemergence herbicidal rating CASOB,[7]; rate 0.0313 kg/ha,0.0
same,Preemergence herbicidal rating CASOB,[7]; rate 0.0625 kg/ha,1.0
same,Preemergence herbicidal rating CASOB,[7]; rate 0.1250 kg/ha,1.0
same,Preemergence herbicidal rating CASOB,[7]; rate 0.2500 kg/ha,9.0
same,herbicidal rating CHEAL,[8]; rate 0.0158 kg/ha,2.0
same,herbicidal rating CHEAL,[8]; rate 0.0315 kg/ha,6.0
same,herbicidal rating CHEAL,[8]; rate 0.0630 kg/ha,7.0
same,herbicidal rating CASOB,[9]; rate 0.0158 kg/ha,0.0
same,herbicidal rating CASOB,[9]; rate 0.0315 kg/ha,1.0
same,herbicidal rating CASOB,[9]; rate 0.0630 kg/ha,1.0
same,herbicidal rating GLXMAW,[10]; rate 0.0158 kg/ha,6.0
same,herbicidal rating GLXMAW,[10]; rate 0.0315 kg/ha,6.0
same,herbicidal rating GLXMAW,[10]; rate 0.0630 kg/ha,6.0
same,Preemergence herbicidal rating ABUTH,[11]; rate 0.0156 kg/ha,1.0
same,Preemergence herbicidal rating ABUTH,[11]; rate 0.0313 kg/ha,0.0
same,Preemergence herbicidal rating ABUTH,[11]; rate 0.0625 kg/ha,2.0
same,Preemergence herbicidal rating ABUTH,[11]; rate 0.1250 kg/ha,9.0
same,Preemergence herbicidal rating ABUTH,[11]; rate 0.2500 kg/ha,9.0
same,Preemergence herbicidal rating ORYSAT,[12]; rate 0.0156 kg/ha,0.0
same,Preemergence herbicidal rating ORYSAT,[12]; rate 0.0313 kg/ha,0.0
same,Preemergence herbicidal rating ORYSAT,[12]; rate 0.0625 kg/ha,0.0
same,Preemergence herbicidal rating ORYSAT,[12]; rate 0.1250 kg/ha,1.0
same,Preemergence herbicidal rating ORYSAT,[12]; rate 0.2500 kg/ha,5.0
same,herbicidal rating AMBEL,[13]; rate 0.0158 kg/ha,4.0
same,herbicidal rating AMBEL,[13]; rate 0.0315 kg/ha,6.0
same,herbicidal rating AMBEL,[13]; rate 0.0630 kg/ha,9.0
same,SAGPY herbicidal effect rating,[14]; 0.0313 kg/ha,3.0
same,SAGPY herbicidal effect rating,[14]; 0.0625 kg/ha,4.0
same,SAGPY herbicidal effect rating,[14]; 0.1250 kg/ha,5.0
same,SAGPY herbicidal effect rating,[14]; 0.2500 kg/ha,6.0
same,MOOVA herbicidal effect rating,[15]; 0.0313 kg/ha,3.0
same,MOOVA herbicidal effect rating,[15]; 0.0625 kg/ha,4.0
same,MOOVA herbicidal effect rating,[15]; 0.1250 kg/ha,4.0
same,MOOVA herbicidal effect rating,[15]; 0.2500 kg/ha,4.0
same,Preemergence herbicidal rating CHEAL,[16]; rate 0.0313 kg/ha,0.0
same,Preemergence herbicidal rating CHEAL,[16]; rate 0.0625 kg/ha,9.0
same,Preemergence herbicidal rating CHEAL,[16]; rate 0.1250 kg/ha,9.0
same,Preemergence herbicidal rating CHEAL,[16]; rate 0.2500 kg/ha,9.0
